The source of these data is PubChem BioAssay AID1259407 (Chemical Carcinogenesis Research Information System (CCRIS), 2018).

This data set relates to CCRIS mutagenicity, Ames/micronucleus/aberration tests. The data set is described as follows: CCRIS mutagenicity studies.
Where [1] appears, read: Test System: AMES SALMONELLA TYPHIMURIUM, Strain/Indicator: TA98, Metabolic Activation: NONE, Method: STANDARD PLATE.
Setting [2] is: Test System: AMES SALMONELLA TYPHIMURIUM, Strain/Indicator: TA98, Metabolic Activation: RAT, LIVER, S-9, AROCLOR 1254, Method: STANDARD PLATE.
Setting [3] is: Test System: AMES SALMONELLA TYPHIMURIUM, Strain/Indicator: TA100, Metabolic Activation: NONE, Method: PREINCUBATION
Where [4] appears, read: Test System: AMES SALMONELLA TYPHIMURIUM, Strain/Indicator: TA100, Metabolic Activation: NONE, Method: STANDARD PLATE.
[5] abbreviates: Test System: AMES SALMONELLA TYPHIMURIUM, Strain/Indicator: TA100, Metabolic Activation: RAT, LIVER, S-9, AROCLOR 1254, Method: STANDARD PLATE.
[6] abbreviates: Test System: AMES SALMONELLA TYPHIMURIUM, Strain/Indicator: TA102, Metabolic Activation: NONE, Method: STANDARD PLATE.
The mark [7] stands for this setting: Test System: AMES SALMONELLA TYPHIMURIUM, Strain/Indicator: TA98, Metabolic Activation: NONE, Method: PREINCUBATION

Activity calls are given as the source filed them. No rule for the calls is given here.

For the compound `CCNC(=O)CC[C@H](N)C(=O)O`, the mutagenic call is “inactive; negative” (Test System: AMES SALMONELLA TYPHIMURIUM, Strain/Indicator: TA97, Metabolic Activation: NONE, Method: PREINCUBATION); “inactive; negative” (Test System: AMES SALMONELLA TYPHIMURIUM, Strain/Indicator: TA97, Metabolic Activation: RAT, LIVER, S-9, AROCLOR 1254, Method: PREINCUBATION); “inactive; negative” (Test System: AMES SALMONELLA TYPHIMURIUM, Strain/Indicator: TA102, Metabolic Activation: NONE, Method: PREINCUBATION); “inactive; negative” (Test System: AMES SALMONELLA TYPHIMURIUM, Strain/Indicator: TA102, Metabolic Activation: RAT, LIVER, S-9, AROCLOR 1254, Method: PREINCUBATION).
With `N#CC(Cl)Cl`, the mutagenic call under setting [1] is “active; positive”; the mutagenic call under setting [2] was “active; positive”; the mutagenic call (Test System: AMES SALMONELLA TYPHIMURIUM, Strain/Indicator: TA98, Metabolic Activation: RAT, LIVER, S-9, PHENOBARBITAL AND 5,6-BENZOFLAVONE, Method: PREINCUBATION) was “inactive; negative”; the mutagenic call (Test System: AMES SALMONELLA TYPHIMURIUM, Strain/Indicator: TA100, Metabolic Activation: NONE, Method: FLUCTUATION TEST) was “active; positive”; the mutagenic call under setting [3] was “active; positive”; the mutagenic call under setting [4] was “active; positive”. Moreover, the mutagenic call reads like this: (Test System: AMES SALMONELLA TYPHIMURIUM, Strain/Indicator: TA100, Metabolic Activation: RAT, LIVER, S-9, AROCLOR 1254, Method: FLUCTUATION TEST) “active; positive”; under setting [5], “active; positive”; (Test System: AMES SALMONELLA TYPHIMURIUM, Strain/Indicator: TA100, Metabolic Activation: RAT, LIVER, S-9, PHENOBARBITAL AND 5,6-BENZOFLAVONE, Method: PREINCUBATION) “active; positive”; (Test System: AMES SALMONELLA TYPHIMURIUM, Strain/Indicator: TA1535, Metabolic Activation: NONE, Method: STANDARD PLATE) “active; positive”; (Test System: AMES SALMONELLA TYPHIMURIUM, Strain/Indicator: TA1535, Metabolic Activation: RAT, LIVER, S-9, AROCLOR 1254, Method: STANDARD PLATE) “active; positive”.
Consider `c1c[nH]cn1`, for which the mutagenic call was “inactive; negative” (Test System: AMES SALMONELLA TYPHIMURIUM, Strain/Indicator: TA97, Metabolic Activation: NONE, Method: STANDARD PLATE); “inactive; negative” (Test System: AMES SALMONELLA TYPHIMURIUM, Strain/Indicator: TA97, Metabolic Activation: RAT, LIVER, S-9, PHENOBARBITAL AND BETA-NAPHTHOFLAVONE, Method: STANDARD PLATE); “inactive; negative” under setting [1]; “inactive; negative” (Test System: AMES SALMONELLA TYPHIMURIUM, Strain/Indicator: TA98, Metabolic Activation: RAT, LIVER, S-9, PHENOBARBITAL AND BETA-NAPHTHOFLAVONE, Method: STANDARD PLATE); “inactive; negative” under setting [4]; “inactive; negative” (Test System: AMES SALMONELLA TYPHIMURIUM, Strain/Indicator: TA100, Metabolic Activation: RAT, LIVER, S-9, PHENOBARBITAL AND BETA-NAPHTHOFLAVONE, Method: STANDARD PLATE). For the same compound, the mutagenic call by setting is: under setting [6], “inactive; negative”; (Test System: AMES SALMONELLA TYPHIMURIUM, Strain/Indicator: TA102, Metabolic Activation: RAT, LIVER, S-9, PHENOBARBITAL AND BETA-NAPHTHOFLAVONE, Method: STANDARD PLATE) “inactive; negative”; (Test System: UDS RAT HEPATOCYTES, Strain/Indicator: THY INCORP, Metabolic Activation: NONE, Method: AUTORADIOGRAPHY) “inactive; negative”.
In the case of `Cc1cc(C)cc(C)c1`, the mutagenic call runs as follows: (Test System: AMES SALMONELLA TYPHIMURIUM, Strain/Indicator: TA97A, Metabolic Activation: NONE, Method: STANDARD PLATE) “inactive; negative”; (Test System: AMES SALMONELLA TYPHIMURIUM, Strain/Indicator: TA97A, Metabolic Activation: RAT, LIVER, S-9, AROCLOR 1254, Method: STANDARD PLATE) “inactive; negative”; under setting [1], “inactive; negative”; under setting [2], “inactive; negative”; under setting [4], “inactive; negative”; under setting [5], “inactive; negative”. Also, the mutagenic call by setting is: under setting [6], “inactive; negative”; (Test System: AMES SALMONELLA TYPHIMURIUM, Strain/Indicator: TA102, Metabolic Activation: RAT, LIVER, S-9, AROCLOR 1254, Method: STANDARD PLATE) “inactive; negative”.
Take `CCc1cccc(CC)c1N=O`: the mutagenic call under setting [7] is “active; positive”; the mutagenic call (Test System: AMES SALMONELLA TYPHIMURIUM, Strain/Indicator: TA98, Metabolic Activation: RAT, LIVER, MICROSOMES, PHENOBARBITAL, Method: PREINCUBATION) is “active; positive”; the mutagenic call (Test System: AMES SALMONELLA TYPHIMURIUM, Strain/Indicator: TA100, Metabolic Activation: RAT, LIVER, MICROSOMES, PHENOBARBITAL, Method: PREINCUBATION) was “active; positive”.
As to `CC(O)CO` (configuration not stated), the mutagenic call (Test System: AMES SALMONELLA TYPHIMURIUM, Strain/Indicator: TA98, Metabolic Activation: HAMSTER, LIVER, S-9, AROCLOR 1254, Method: PREINCUBATION) is “inactive; negative”; the mutagenic call under setting [7] was “inactive; negative”; the mutagenic call (Test System: AMES SALMONELLA TYPHIMURIUM, Strain/Indicator: TA98, Metabolic Activation: RAT, LIVER, S-9, AROCLOR 1254, Method: PREINCUBATION) is “inactive; negative”; the mutagenic call (Test System: AMES SALMONELLA TYPHIMURIUM, Strain/Indicator: TA100, Metabolic Activation: HAMSTER, LIVER, S-9, AROCLOR 1254, Method: PREINCUBATION) is “inactive; negative”; the mutagenic call under setting [3] was “inactive; negative”; the mutagenic call (Test System: AMES SALMONELLA TYPHIMURIUM, Strain/Indicator: TA100, Metabolic Activation: RAT, LIVER, S-9, AROCLOR 1254, Method: PREINCUBATION) was “inactive; negative”. For the same compound, the mutagenic call (Test System: AMES SALMONELLA TYPHIMURIUM, Strain/Indicator: TA1535, Metabolic Activation: HAMSTER, LIVER, S-9, AROCLOR 1254, Method: PREINCUBATION) is “inactive; negative”; the mutagenic call (Test System: AMES SALMONELLA TYPHIMURIUM, Strain/Indicator: TA1535, Metabolic Activation: NONE, Method: PREINCUBATION) was “inactive; negative”; the mutagenic call (Test System: AMES SALMONELLA TYPHIMURIUM, Strain/Indicator: TA1535, Metabolic Activation: RAT, LIVER, S-9, AROCLOR 1254, Method: PREINCUBATION) is “inactive; negative”; the mutagenic call (Test System: AMES SALMONELLA TYPHIMURIUM, Strain/Indicator: TA1537, Metabolic Activation: HAMSTER, LIVER, S-9, AROCLOR 1254, Method: PREINCUBATION) is “inactive; negative”; the mutagenic call (Test System: AMES SALMONELLA TYPHIMURIUM, Strain/Indicator: TA1537, Metabolic Activation: NONE, Method: PREINCUBATION) is “inactive; negative”; the mutagenic call (Test System: AMES SALMONELLA TYPHIMURIUM, Strain/Indicator: TA1537, Metabolic Activation: RAT, LIVER, S-9, AROCLOR 1254, Method: PREINCUBATION) was “inactive; negative”.
